Measured values as given in US20240132449A1, “HETEROCYCLIC COMPOUNDS AND METHODS OF USE THEREOF” (1cBio, Inc., priority 2022, published 2024).
Where a name gives a salt, the structure may show the parent alone.

What was measured:
[1] = target: recombinant human PARP2 (Homo sapiens, UniProt Q9UGN5); assay: PARP2 fluorescence polarization binding assay; settings: for IC50: binding IC50, GST-tagged PARP2 20 nM, PARPi-FL 3 nM; for inhibition at 10 µM: read-out: PARP2 % inh at 10 μM
Outline: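 GST-tagged PARP2, added at 40 nM in 50 mM Tris pH 8.0, 0.001% Triton X-100, 10 mM MgCl2, 150 mM NaCl, was preincubated 30 min at RT with compound (10-point 3-fold series or single concentration). PARPi-FL probe was then added at 6 nM for 4 h. IC50 was fitted from fluorescence polarization (ex 480/em 535 nm) with floating top and bottom.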

[2] = target: PARP1 (Homo sapiens, UniProt P09874); assay: PARP1 biochemical trapping assay (BPS PARPtrap)
Chain of PARP1 (P09874 whole entry, the tested form may be a part): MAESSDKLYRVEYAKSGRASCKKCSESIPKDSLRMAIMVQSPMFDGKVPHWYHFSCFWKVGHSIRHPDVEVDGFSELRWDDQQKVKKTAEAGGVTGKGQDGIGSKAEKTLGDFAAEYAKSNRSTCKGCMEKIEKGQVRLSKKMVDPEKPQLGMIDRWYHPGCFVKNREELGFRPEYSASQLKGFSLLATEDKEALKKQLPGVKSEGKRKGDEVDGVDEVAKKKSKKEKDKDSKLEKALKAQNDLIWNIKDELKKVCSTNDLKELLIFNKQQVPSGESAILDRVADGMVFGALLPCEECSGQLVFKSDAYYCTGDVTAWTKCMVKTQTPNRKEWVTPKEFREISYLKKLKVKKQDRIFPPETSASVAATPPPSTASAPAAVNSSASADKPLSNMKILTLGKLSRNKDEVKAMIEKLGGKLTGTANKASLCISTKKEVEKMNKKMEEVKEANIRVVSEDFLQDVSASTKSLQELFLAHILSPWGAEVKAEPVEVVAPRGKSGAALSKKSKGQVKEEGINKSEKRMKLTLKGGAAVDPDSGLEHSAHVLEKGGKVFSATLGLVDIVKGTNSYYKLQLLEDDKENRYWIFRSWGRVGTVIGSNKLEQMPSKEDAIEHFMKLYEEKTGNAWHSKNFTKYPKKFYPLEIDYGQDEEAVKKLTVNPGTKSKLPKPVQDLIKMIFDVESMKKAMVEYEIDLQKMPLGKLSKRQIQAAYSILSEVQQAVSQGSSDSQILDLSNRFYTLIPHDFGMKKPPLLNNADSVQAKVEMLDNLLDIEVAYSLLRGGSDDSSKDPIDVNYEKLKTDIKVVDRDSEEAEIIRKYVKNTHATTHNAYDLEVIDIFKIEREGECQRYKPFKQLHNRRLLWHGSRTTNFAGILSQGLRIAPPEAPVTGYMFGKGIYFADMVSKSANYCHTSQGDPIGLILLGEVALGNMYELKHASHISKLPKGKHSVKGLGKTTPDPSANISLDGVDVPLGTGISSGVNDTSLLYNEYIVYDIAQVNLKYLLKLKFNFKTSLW
Description: Compounds of the present disclosure were tested in a PARP1 biochemical trapping assay at BPS Bioscience (San Diego, CA). PARP1 is known to bind damaged DNA through its DNA-binding domains. Binding to DNA activates PARP1, and in the presence of NAD+, PARP1 ribosylates itself (auto-ribosylation), leading to PARP1 dissociation from the DNA due to the accumulated negative charge of the ribosyl polymer. In the presence of some inhibitors, however, PARP remains bound to the DNA, a phenomenon termed trapping.
The BPS PARPtrap assay kit for PARP1 (BPS Catalog #80584) was used. A series of dilutions of the compounds were prepared with 10% DMSO in water. The final concentration of DMSO was 1% in all reactions. The enzymatic reactions were conducted in duplicates at room temperature in a 96-well plate. The 45 μl reaction mixtures in PARPtrap buffer 1 containing PARP1 fluorescent labelled oligonucleotide duplex, PARP enzyme and the test compound were incubated at room temperature for 10 min. After pre-incubation, the enzymatic reaction was initiated by adding 5 μl of 10×NAD+ solution. The reaction was incubated for 45-60 min at room temperature.
Fluorescence polarization was measured at an excitation of 470 nm and an emission of 518 nm using a Tecan Infinite M1000 microplate reader. The blank value was subtracted from all other values. Fluorescence polarization was analyzed by Tecan Magellan 6 software and wells containing DNA were used as references. The fluorescence polarization data were then evaluated using GraphPad Prism software. The fluorescence polarization in absence of the compound in each data set was defined as 0% activity (FPo), while the fluorescence polarization in the absence of both NAD+ and the compound was defined as 100% activity (FPt). The percent activity in the presence of the compound was calculated according to the equation % activity=[FP−FPo]/[(FPt−FPo)]×100, where FP=the fluorescence polarization in the presence of the compound.
The values of % activity versus a series of compound concentrations were then plotted using non-linear regression analysis of a sigmoidal dose-response curve generated with the equation Y=B+(T−B)/1+10^((LogEC50−X)×Hill Slope), where Y=percent activity, B=minimum percent activity, T=maximum percent activity, X=logarithm of compound and Hill Slope=slope factor or Hill coefficient. The EC50 value was determined by the concentration causing a half-maximal percent activity. EC50 values are shown in Table C and are presented in ranges, in which “+++”<300 nM, 300 nM≤“++”<3000 nM, and “+”≥3000 nM.

Chain of recombinant human PARP2 (Q9UGN5 whole entry): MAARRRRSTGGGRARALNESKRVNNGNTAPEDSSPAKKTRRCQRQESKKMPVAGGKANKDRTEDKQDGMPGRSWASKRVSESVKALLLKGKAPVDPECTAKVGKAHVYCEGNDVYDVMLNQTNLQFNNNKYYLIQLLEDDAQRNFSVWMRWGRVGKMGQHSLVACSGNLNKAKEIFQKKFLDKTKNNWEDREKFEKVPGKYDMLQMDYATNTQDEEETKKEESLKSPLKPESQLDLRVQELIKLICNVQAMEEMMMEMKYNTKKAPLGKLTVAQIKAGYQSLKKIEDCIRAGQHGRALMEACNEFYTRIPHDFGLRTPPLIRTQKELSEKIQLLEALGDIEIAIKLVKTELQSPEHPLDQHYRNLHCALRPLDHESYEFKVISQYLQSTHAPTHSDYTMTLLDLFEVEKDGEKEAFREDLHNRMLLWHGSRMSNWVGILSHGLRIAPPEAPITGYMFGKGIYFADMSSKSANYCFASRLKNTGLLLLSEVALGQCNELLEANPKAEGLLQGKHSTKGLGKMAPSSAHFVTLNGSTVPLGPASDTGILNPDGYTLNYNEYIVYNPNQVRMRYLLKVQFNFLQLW

SMILES	IC50 [1]	inhibition at 10 µM [1]	EC50 [2]
CCn1c(=O)[nH]c2cc(CN3CCN(c4ccc(C(=O)NC)nc4)CC3)ccc2c1=O [Compound 3, 5-(4-((3-ethyl-2,4-dioxo-1,2,3,4-tetrahydroquinazolin-7-yl)methyl)piperazin-1-yl)-N-methylpicolinamide formate]	> 3 µM	33 to 67%	0.3 to 3 µM
CCn1c(=O)[nH]c2cc(CN3CCN(c4ccc(C(=O)NC)nc4C)CC3)ccc2c1=O [Compound 16, 5-{4-[(3-ethyl-2,4-dioxo-1H-quinazolin-7-yl)methyl]piperazin-1-yl}-N,6-dimethylpyridine-2-carboxamide]	> 3 µM	33 to 67%	< 0.3 µM
CCn1c(=O)[nH]c2cc(CN3CCN(c4ccc(C(=O)NC)nc4C)CC3)ccc2c1=S [Compound 51, 5-(4-((3-ethyl-2-oxo-4-thioxo-1,2,3,4-tetrahydroquinazolin-7-yl)methyl)piperazin-1-yl)-N,6-dimethylpicolinamide formate]	> 3 µM	33 to 67%	0.3 to 3 µM
CCn1c(=O)[nH]c2cc(CN3CCN(c4ccc(C(=O)NC)nc4C)CC3)sc2c1=O [Compound 188, 5-(4-((3-ethyl-2,4-dioxo-1,2,3,4-tetrahydrothieno[3,2-d]pyrimidin-6-yl)methyl)piperazin-1-yl)-N,6-dimethylpicolinamide]	> 3 µM	33 to 67%	0.3 to 3 µM
CCN1Cc2ccc(CN3CCN(c4ccc(C(=O)NC)nc4)CC3)cc2NC1=O [Compound 196, 5-(4-((3-ethyl-2-oxo-1,2,3,4-tetrahydroquinazolin-7-yl)methyl)piperazin-1-yl)-N-methylpicolinamide formate]	> 3 µM	33 to 67%	0.3 to 3 µM
